target: T1, E. coli adenosine deaminase (Escherichia coli, UniProt P22333); assay: inhibition of adenosine deamination, HPLC, Lineweaver-Burk; format: biochemical
T1 construct: gene add; recombinant
T1 sequence (P22333 1-333): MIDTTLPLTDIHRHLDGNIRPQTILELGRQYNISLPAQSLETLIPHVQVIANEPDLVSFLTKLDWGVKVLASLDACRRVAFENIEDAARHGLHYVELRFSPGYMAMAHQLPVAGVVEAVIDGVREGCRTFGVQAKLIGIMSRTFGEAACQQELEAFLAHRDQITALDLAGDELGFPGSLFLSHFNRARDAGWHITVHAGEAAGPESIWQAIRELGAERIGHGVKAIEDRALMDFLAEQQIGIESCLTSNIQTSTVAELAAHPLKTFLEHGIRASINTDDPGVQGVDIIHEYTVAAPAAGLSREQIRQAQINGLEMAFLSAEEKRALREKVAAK

Structure (SMILES)	Ki [µM]
Nc1nc(Cl)nc2c1ncn2[C@@H]1O[C@H](CO)[C@@H](O)[C@H]1O [compound 15, 2-chloradenosine]	78 ± 12
NC(=O)[C@H](CO)Nc1nc(Cl)nc2c1ncn2[C@@H]1O[C@H](CO)[C@@H](O)[C@@H]1O [4b, 9-β-D-Arabinofuranosyl-2-chloro-6-(N^α-L-serinylamido)-purine]	1200 ± 200
Nc1nc(Cl)nc2c1ncn2[C@@H]1O[C@H](CO)[C@@H](O)[C@@H]1O [compound 16, 6-Amino-2-chloro-9-beta-D-arabinofuranosyl-9H-purine]	130 ± 20
